The values below come from patent US20020040031A1, “Methods for prevention of accumulation of amyloid beta peptide in the central nervous system” (priority 2000, published 2002).

Test [1] relates to sAPP secretion in PC12 cells. Description: sAPP secretion in PC12 cells, Western immunoblot of conditioned media (Example 1). It is filed as cell-based. Particulars: for secretion of sAPP versus control: single agent, PC12 conditioned media, 48 hours, 22C11 immunoblot, NGF 10 and 50 ng/ml, bFGF 50 ng/ml, AIT-082 different doses. The method, then: Treatment of Cells and Preparation of Cell Extract. PC12 cells were first grown to 70-80% confluence in the regular medium. A day prior to the experiment, PC12 cells were subcultured uniformly onto the plate with minimum cellular aggregation/ clumping to approximately 1×10^6 cells per 60-mm plate. The PC12 cells were then subjected to treatments with either AIT-082, NGF, bFGF or a combination as previously described (4). AIT-082 was added into separate plates at […] different doses: 0, 5, 20, 30, 50, 100, 300 ng/ ml and also 1, 3, 10, 30, 100 μg/ml. For comparative purposes, cultures were treated with NGF at 10 and 50 ng/ml, and bFGF was used at 50 ng/ml. Additional cultures contained both AIT-082 (300 ng/ml) and either NGF (50 ng/ml) or bFGF (50 ng/ml). Following incubation for 48 hours, the conditioned medium from each plate was collected.
PAGE and Western Immunoblotting. Total proteins from the conditioned media were analyzed on a 12% polyacrylamide gel containing SDS (SDS-PAGE), and western blot analysis was performed in the Mini-PROTEAN II system of Bio-Rad as described previously (6). sAPP was detected using the 22C11 (Boehringer Mannheim, Indianapolis, Ind.). A biotinylated secondary antibody, horse anti-mouse (Boehringer Mannheim), was also used. The detection system was based on the avidin-biotinylated-complex (Vector labs, Burlingame, Calif.) and enzymatic color reactions.
Treatment of NGF or bFGF Results in a Substantial Increase in sAPP Secretion in PC12 Cells. In denaturing polyacrylamide gel, an equal amount of total protein was loaded from each of the conditioned medium samples. After 48 hours of incubation, 50 μg samples of conditioned media were subjected to SDS-PAGE (12%) and transferred to a nitrocellulose membrane. Protein size markers shown on the left of the blot from top to bottom are: 107, 74, 49.3, 36.4, and 28.5 kDa. For FIG. 1, the transferred proteins were probed with anti-APP antibody (22C11), and immunodetection was carried out by the enzymatic color method as described previously (5). Two distinct bands of 110 and 95 kDa were detected, which correspond to soluble APP derivatives (sAPP) arising from different alternate forms of APP and/or their posttranslationally modified derivatives.
(In general: Immunoblotting shows a protein as a band on a membrane.)

Test [2] deals with sAPP secretion in PC12 cells. Description: Time course of sAPP secretion in PC12 cells, Western immunoblotting (Example 2). It is filed as cell-based. Conditions: PC12 cells treated for 6, 12, 24, 48, or 72 hours; AIT-082 10 nM-100 μM; RPMI 1640 and 0.5% FBS. The method, then:
To determine the time course of sAPP secretion after administration of AIT-082 or NGF to PC12 cells, an experiment similar to the experiment of Example 1 was carried out using multiple time points. Five to six million PC12 cells were treated in RPMI 1640 and 0.5% FBS with doses of AIT-082 (10 nM-100 μM). […] Levels of sAPP in samples from conditioned media and cell lysates were measured by Western immunoblotting with anti-sAPP antibody. When PC12 cells were treated with AIT-082 for 6, 12, 24, 48, or 72 hours, there was an increase in levels of secreted sAPP.

Another test has as its system PC12 cells. Description: NGF-mediated differentiation of PC12 cells (Example 2). It is filed as cell-based.
For test [3], the system named is secretion of Aβ in cultured PC12 cells. The experiment in a line: Secretion of Aβ in cultured PC12 cells, sandwich ELISA (Example 3). The test is classed as cell-based. Conditions: AIT-082 100 μg/ml, PC12 conditioned media. How it is done: To determine the effect of AIT-082 on Aβ levels, PC12 cells were treated with a high dose of AIT-082 (100 μg/ ml) and the conditioned media was analyzed for Aβ. Levels of total Aβ were measured using a sensitive sandwich ELISA. Experiments were done in triplicate and the values were obtained from known standards run in parallel with the samples as described previously (A. Becher et al., “The Synaptophysin-Synaptobrevin Complex: A Hallmark of Synaptic […] Maturation,” J. Neurosci. 19: 1922-1931).

Test [4] relates to nerve growth factor (NGF), neurotrophin-3, and basic fibroblast growth factor (bFGF). Conditions: at least three neurotrophins; reference 3; cited from earlier work.
The test system of test [5] is sAPP release from PC12 cultures. Particulars: previously shown, reference 7; cited from earlier work.

In the case of “bFGF: basic fibroblast growth factor procured from Life Technologies”, the “secretion of sAPP versus control” value in test [1] was “slight increase”.

For the compound `O=C(CCn1cnc2c(=O)[nH]cnc21)Nc1ccc(C(=O)O)cc1` [AIT-082, N-4-carboxyphenyl-3-(6-oxohydropurin-9-yl) propanamide], the “levels of extracellular sAPP versus control cultures (dose response, densitometry, FIG. 2)” value in test [1] (AIT-082 5-300 ng/ml, PC12) is “statistically significantly higher”. For the same compound, the “secretion of sAPP versus control” value in test [1] is given as “significant increase”. For the same compound, in test [2], the “levels of secreted sAPP” value is “increase”. Also, the “effect of cotreatment on NGF-mediated differentiation” value in the test with PC12 cells (AIT-082 cotreatment with NGF, PC12 cells) is listed as “enhanced NGF-mediated differentiation”. Also, the “Percent change from controls (total Aβ)” value in test [3] was −20%. Moreover, the “Levels of total Aβ” value in test [3] (triplicate) is recorded as 136 ± 6 fmols/ml. The “expression of neurotrophins (NGF, neurotrophin-3, bFGF)” value in test [4] was “induce the expression”.

In the case of “NGF: Nerve growth factor procured from Life Technologies”, the “secretion of sAPP versus control” value in test [1] is recorded as “significant increase”. In the test with PC12 cells (NGF treatment alone), the “differentiation phenotype of PC12 cells” value is recorded as “sympathetic neuronal phenotypes”. In addition, in test [5], the “release of sAPP from PC12 cultures” value was “induce the release of sAPP”.
